These results are taken from US20040106802A1, “Novel compounds and therapeutic uses thereof” (TORRENT PHARMACEUTICALS LTD., priority 2002, published 2004).

The structures appear in SMILES notation. Counter-ions that a name gives are not always drawn. Like-named read-outs stand apart in the source and are kept apart here.

Assay [1] is described as follows: In-vitro free radical scavenging activity using DPPH free radical. The note with it: 30° C., 30 minutes, 515 nm. An excerpt: Free Radical Scavenging Activity:
To determine the in-vitro free radical scavenging activity of compounds of general formula-I on 2,2,-diphenyl-1-picrylhydrazyl (DPPH)radical (Ref: W. Brand-Williams, M. E. Cuvelier, C. Berset “Use of a free radical method to evaluate antioxidant activity”, Lebensm.- Wiss.u.Technol.,1995,28,Nr.1:25-30).
To evaluate the free radical scavenging activity of compounds they are allowed to react with stable radical DPPH*. In its radical form, DPPH* absorbed at the characteristic wave length of 515 nm, but upon reduction by an antioxidant or radical scavenger (AH), the absorption disappears.
10^−4M solution of DPPH* was prepared in methanol.
Various concentrations (10 mM, 1 mM, 0.5 mM, 0.25 mM and 0.125 mM) of drug solutions were prepared in methanol.
900 μl of DPPH radical solution was added to an eppendorf tube. To it was added 100 μl of methanol.
900 μl of DPPH radical solution was added to an eppendorf tube. To it was added 100 μl of various concentrations of drug solutions in methanol.
The absorbance of control and test samples was recorded after incubation at 30° C. for 30 minutes, at 515 nm taking methanol as blank.
The percent antioxidant activity was calculated according to the formula:
% Antioxidant activity=100−[O.D of test sample/O.D of control*100]
(The DPPH test is a chemical assay of radical scavenging.)

In assay [2] the target is T1, Porcine DPP-IV (Sus scrofa, UniProt P22411).
T1 construct: purchased Sigma-Aldrich Germany
In words: Assay of DPP-IV enzyme inhibitory activity (spectrophotometric, Gly-Pro-pNA cleavage). It counts as biochemical.

Setting [3] is: Porcine DPP-IV, Gly-Pro-pNA substrate, 30° C., mean ± SD of three experiments except compound Nos. 133 & 139, read-out: IC50 (μM) Mean ± SD, inhibitory activity on DPP-IV enzyme activity.

T1 sequence (P22411 whole entry): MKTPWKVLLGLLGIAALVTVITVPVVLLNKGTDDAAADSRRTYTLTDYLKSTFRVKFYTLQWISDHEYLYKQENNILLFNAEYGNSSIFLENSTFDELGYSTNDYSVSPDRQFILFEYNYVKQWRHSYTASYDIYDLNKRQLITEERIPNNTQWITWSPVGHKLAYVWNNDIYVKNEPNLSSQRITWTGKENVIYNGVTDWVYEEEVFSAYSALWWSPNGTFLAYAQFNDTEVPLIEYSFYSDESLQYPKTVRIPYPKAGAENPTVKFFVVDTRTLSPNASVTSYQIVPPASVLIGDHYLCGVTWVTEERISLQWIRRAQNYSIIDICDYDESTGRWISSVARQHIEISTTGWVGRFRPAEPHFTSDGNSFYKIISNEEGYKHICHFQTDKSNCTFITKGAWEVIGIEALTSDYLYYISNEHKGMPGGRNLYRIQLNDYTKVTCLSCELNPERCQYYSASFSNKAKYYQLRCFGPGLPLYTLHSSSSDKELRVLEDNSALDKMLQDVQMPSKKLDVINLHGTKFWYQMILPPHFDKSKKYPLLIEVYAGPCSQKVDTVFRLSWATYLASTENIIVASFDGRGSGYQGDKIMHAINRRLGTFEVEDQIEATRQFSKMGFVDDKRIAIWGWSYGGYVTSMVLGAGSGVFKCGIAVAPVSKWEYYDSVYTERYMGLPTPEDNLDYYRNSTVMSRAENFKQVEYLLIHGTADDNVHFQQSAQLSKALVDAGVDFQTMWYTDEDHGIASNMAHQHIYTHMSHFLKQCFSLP

For the compound `N#CC1CSCN1C(=O)CN(N)C1CCN(CC(=O)Nc2cccnc2Cl)CC1` (stereo not drawn) [compound 121], the “% Activity (antioxidant, DPPH)” value in assay [1] (Concentration 100 μM) stood at 57.13%.

`N#CC1CSCN1C(=O)CN(N)C1CCN(CC(=O)Nc2ccc(Cl)cn2)CC1` (stereo not drawn) [Compound No. 115, 3-[-1-oxo-2-[1-(1-(−2-oxo-2-(5-chloropyridin-2-yl)aminoethyl)piperidine-4-yl)]hydrazino]ethyl-4-cyanothiazolidine trihydrochloride]: the “% Activity (antioxidant, DPPH)” value in assay [1] (Concentration 12.5 μM, trihydrochloride, 12.5 µM) stood at 19.46%; in assay [1] (Concentration 25 μM, trihydrochloride, 25 µM), 26.94%; in assay [1] (Concentration 50 μM, trihydrochloride, 50 µM) it was 46.24%; in assay [1] (Concentration 100 μM, trihydrochloride, 100 µM), 75.84%.

As usually defined, the IC50 is the point on the concentration scale where inhibition reaches its midpoint. Take `N#CC1CSCN1C(=O)CN(N)C1CCN(CC(=O)Nc2ncccn2)CC1` (stereo not drawn) [Compound No. 106, 3 [2-oxo-2-[1-(1-(2-oxo-2(pyrimidin-2-yl)aminoethyl)piperidin-4-yl)]hydrazino]ethyl-4-cyanothiazolidine tris-trifluoroacetate]: in assay [2] (setting [3]), the IC50 stood at 0.143 ± 0.02 µM. Besides, the “% Activity (antioxidant, DPPH)” value in assay [1] (Concentration 12.5 μM) was 24.86%; in assay [1] (Concentration 25 μM), 42.52%; in assay [1] (Concentration 50 μM) it was 70.39%; in assay [1] (Concentration 100 μM) it was 72.86%.

For the compound `CCN(C)C(=O)N1CCC(N(N)CC(=O)N2CSCC2C#N)CC1.O=C(O)C(F)(F)F` (stereo not drawn) [Compound No. 90, 3-[1-oxo-2-[1-(1-(N-ethylmethylaminocarbonyl)-piperidin-4-yl)]hydrazino]ethyl-4-cyanothiazolidine trifluoroacetate], the half-maximal inhibitory concentration (IC50) in assay [2] (setting [3]) is 1.23 ± 0.3 µM. Also, the “% Activity (antioxidant, DPPH)” value in assay [1] (Concentration 12.5 μM) came out at 21.81%; in assay [1] (Concentration 25 μM), 42.93%; in assay [1] (Concentration 50 μM) it was 62.91%; in assay [1] (Concentration 100 μM) it was 82.75%.

In the case of `N#CC1CSCN1C(=O)CN(N)C1CCN(CC(=O)Nc2ccc(C(F)(F)F)cc2)CC1` (stereo not drawn) [Compound No. 102, 3-[1-oxo-2-[-1-(1-(2-oxo-2(4-trifluorophenyl)aminoethyl)piperidin-4-yl)]hydrazino]ethyl-4-cyanothiazolidine bis-trifluoroacetate], the 50% inhibitory concentration (IC50) in assay [2] (setting [3]) worked out at 0.308 ± 0.06 µM. Moreover, the “% Activity (antioxidant, DPPH)” value in assay [1] (Concentration 12.5 μM) is given as 20.90%; in assay [1] (Concentration 25 μM), 29.56%; in assay [1] (Concentration 50 μM), 34.26%; in assay [1] (Concentration 100 μM), 50.15%.

On to `CC(C)(C)C(=O)NC1CCC(N(N)CC(=O)N2CSCC2C#N)CC1.O=C(O)C(F)(F)F` (stereo not drawn) [Compound No. 98, 3-[1-oxo-2-[(1-(trimethylacetamido)cyclohexan-4-yl)]hydrazino]ethyl-4-cyanothiazolidine trifluoroacetate], for which the 50% inhibitory concentration (IC50) in assay [2] (setting [3]) was 0.71 ± 0.01 µM. Besides, the “% Activity (antioxidant, DPPH)” value in assay [1] (Concentration 12.5 μM, 12.5 µM) turned out to be 21.99%; in assay [1] (Concentration 25 μM, 25 µM), 40.77%; in assay [1] (Concentration 50 μM, 50 µM), 59.21%; in assay [1] (Concentration 100 μM, 100 µM), 73.35%.

Consider `N#CC1CSCN1C(=O)CN(N)C1CCN(C(=O)N2CCOCC2)CC1.O=C(O)C(F)(F)F` (stereo not drawn) [Compound No. 85, 3-[1-oxo-2-[1-(1(morpholinocarbonyl)-piperidin-4-yl)]hydrazino]ethyl-4-cyano-thiazolidine trifluoroacetate], for which the IC50 in assay [2] (setting [3]) was found to be 0.79 ± 0.072 µM. Also, the “% Activity (antioxidant, DPPH)” value in assay [1] (Concentration 12.5 μM) worked out at 15.25%; in assay [1] (Concentration 25 μM) it was 30.67%; in assay [1] (Concentration 50 μM) it was 49.97%; in assay [1] (Concentration 100 μM), 67.23%.

For the compound `CC(C)(C)C(=O)NC1CCC(N(N)CC(=O)N2CSCC2C#N)CC1.O=C(O)C(F)(F)F` (stereo not drawn) [Compound No. 96, 3-[1-oxo-2-[1-(1-(trimethylacetamido)cyclohexan-4-yl)]hydrazino]ethyl-4-cyanothiazolidine trifluoroacetate], the half-maximal inhibitory concentration (IC50) in assay [2] (setting [3]) turned out to be 4 ± 0.144 µM. The “% Activity (antioxidant, DPPH)” value is 19.11% in assay [1] (Concentration 12.5 μM, 12.5 µM); 34.43% in assay [1] (Concentration 25 μM, 25 µM); 48.83% in assay [1] (Concentration 50 μM, 50 µM); 63.26% in assay [1] (Concentration 100 μM, 100 µM).

Turning to `N#CC1CSCN1C(=O)CN(N)C1CCN(CC(=O)NC2CC2)CC1` (stereo not drawn) [Compound No. 108, 3[1-oxo-2-[1-(1-(2-oxo-2-(cyclopropyl)aminoethyl)piperidin-4-yl)]hydrazino]ethyl-4-cyanothiazolidine bis-trifluoroacetate], the values for the half-inhibitory concentration (IC50) in assay [2] (setting [3]) and in assay [2] (read-out: dipeptidyl peptidase-IV inhibitory IC50's in the range) were 0.236 ± 0.025 µM and 0.088 to 0.25 µM, respectively. Also, the “% Activity (antioxidant, DPPH)” value is 20.19% in assay [1] (Concentration 12.5 μM), 26.25% in assay [1] (Concentration 25 μM), 34.71% in assay [1] (Concentration 50 μM) and 52.72% in assay [1] (Concentration 100 μM).

`N#CC1CSCN1C(=O)CN(N)C1CCN(CC(=O)Nc2ccc(S(N)(=O)=O)cc2)CC1` (stereo not drawn) [compound 131, 3-[1-oxo-2-(1-(1-(2-oxo-2-(4-aminosulphonylphenyl)aminoethyl)piperidin-4-yl))hydrazino]ethyl-4-cyanothiazolidine, bis-trifluoroacetate]: in assay [2] (setting [3]), the IC50 was 0.0985 ± 0.012 µM. For the same compound, the “% Activity (antioxidant, DPPH)” value in assay [1] (Concentration 100 μM) came out at 57.73%.

For `N#CC1CSCN1C(=O)CN(N)C1CCN(CC(=O)NC23CC4CC(CC(C4)C2)C3)CC1` (stereo not drawn) [Compound No. 103, 3-[1-oxo-2-[1-(1-(2-oxo-2(-adamant-1-yl)aminoethyl)piperidin-4-yl)]hydrazino]ethyl-4-cyanothiazolidine bis-trifluoroacetate], the IC50 in assay [2] (setting [3]) came out at 0.523 ± 0.017 µM. In addition, the “% Activity (antioxidant, DPPH)” value came to 20.41% in assay [1] (Concentration 12.5 μM), 40.80% in assay [1] (Concentration 25 μM), 44.09% in assay [1] (Concentration 50 μM) and 54.81% in assay [1] (Concentration 100 μM).

For `N#CC1CSCN1C(=O)CN(N)C1CCN(CC(=O)Nc2ccc(Cl)cc2)CC1` (stereo not drawn) [Compound No. 105, 3-[1-oxo-2-[1-(1-(2-oxo-2(4-chlorophenyl)aminoethyl)piperidin-4-yl)]hydrazino]ethyl-4-cyanothiazolidine bis-trifluoroacetate], the “% Activity (antioxidant, DPPH)” value in assay [1] (Concentration 12.5 μM) is reported as 24.03%; in assay [1] (Concentration 25 μM), 35.27%; in assay [1] (Concentration 50 μM), 49.25%; in assay [1] (Concentration 100 μM) it was 49.63%.

`COc1ccc(S(=O)(=O)N2CCC(N(N)CC(=O)N3CSCC3C#N)CC2)cc1.O=C(O)C(F)(F)F` (stereo not drawn) [Compound No. 91, 3-[1-oxo-2-[1-(1-(4-methoxyphenylsulphonyl)-piperidin-4-yl)]hydrazino]ethyl-4-cyanothiazolidine trifluoroacetate]: the IC50 in assay [2] (setting [3]) was 6.7 ± 0.4 µM. The “% Activity (antioxidant, DPPH)” value in assay [1] (Concentration 12.5 μM) stood at 17.16%; in assay [1] (Concentration 25 μM) it was 38.11%; in assay [1] (Concentration 50 μM), 58.87%; in assay [1] (Concentration 100 μM), 85.69%.

Consider `CS(=O)(=O)NC1CCC(N(N)CC(=O)N2CSCC2C#N)CC1` (stereo not drawn) [Compound No. 114, 3-[1-oxo-2-(1-(1-methanesulphonylamino-4-cyclohexyl)hydrazino)]ethyl-4-cyanothiazolidine hydrochloride], for which the half-maximal inhibitory concentration (IC50) in assay [2] (setting [3]) was 0.397 ± 0.02 µM. In addition, the “% Activity (antioxidant, DPPH)” value was found to be 19.23% in assay [1] (Concentration 12.5 μM), 39.37% in assay [1] (Concentration 25 μM), 78.16% in assay [1] (Concentration 50 μM) and 92.76% in assay [1] (Concentration 100 μM).

For `N#CC1CSCN1C(=O)CN(N)C1CCN(CC(=O)Nc2ccc3c(c2)OCO3)CC1` (stereo not drawn) [compound 130, 3-[1-oxo-2-(1-(1-(2-oxo-2-(3,4-methelenedioxyphenyl)aminoethyl)piperidine-4-yl))hydrazino]ethyl-4-cyanothiazolidine, bis-trifluoroacetate], in assay [2] (setting [3]), the IC50 was 0.24 ± 0.025 µM. Moreover, the “% Activity (antioxidant, DPPH)” value in assay [1] (Concentration 100 μM) came out at 56.37%.

Consider `N#CC1CSCN1C(=O)CN(N)C1CCC(NC(=O)c2ccc(F)cc2)CC1.O=C(O)C(F)(F)F` (stereo not drawn) [Compound No. 100], for which the “% Activity (antioxidant, DPPH)” value in assay [1] (Concentration 12.5 μM) worked out at 31.14%; in assay [1] (Concentration 25 μM) it was 41.49%; in assay [1] (Concentration 50 μM), 59.54%; in assay [1] (Concentration 100 μM), 77.75%.

For the compound `N#CC1CSCN1C(=O)CN(N)C1CCN(CC(=O)Nc2ccc3c(c2)OCCO3)CC1` (stereo not drawn) [Compound No. 104, 3-[1-oxo-2-[1-(1-(2-oxo-2(2,3dihydrobenzo(1,4)dioxan-6-yl)aminoethyl)piperidin-4-yl)]hydrazino]ethyl-4-cyano-thiazolidine bis-trifluoroacetate], the “% Activity (antioxidant, DPPH)” value in assay [1] (Concentration 12.5 μM) is reported as 19.40%; in assay [1] (Concentration 25 μM), 36.23%; in assay [1] (Concentration 50 μM), 42.20%; in assay [1] (Concentration 100 μM), 50.14%.
